Assay results from patent EP4108244A1, “SS-LACTAM ANTIBIOTIC WITH SIGNIFICANT ACTIVITY AGAINST CANCER E.G. COLON MALIGNANCIES” (priority 2021, dated 2022).
Values joined by “and” are separate entries in the source; they are usually repeats but may differ in a detail not shown here. Identical values can stand only once. Marks after values point to notes of the source that are not given here.

Experiments:
[1] = test system: DLD-1 cells; assay: Cell cycle distribution, propidium iodide staining; assay type: cell-based, human; details: for accumulation of dead cells in the pre-G1 phase vs. control: CFT alone
Procedure: Propidium iodide (PI) staining was used to evaluate the effect of the different treatments on the cell cycle. […] 48 h and 72 h post-treatment, collected cells were fixed with ice-cold ethanol (70%) and stored at - 20 °C for at least 2 h. Fixed cells, which were washed with PBS and incubated at 37 °C for 1 h with 50 µl RNase (1 mg/ml) (Sigma Aldrich, Germany), were stained for 15 minutes with PI (Molecular Probes, Eugene, Oregon, USA). Cell cycle was monitored using BD FACSDiva™ and the percentage of cells in the different phases of the cell cycle (pre-Gi, G0/G1, S, and G2/M) phases was determined using BD FACSDiva™ Software.
Propidium iodide (PI) staining was used to evaluate the effect of the different treatments (Ceftazidime (100 µg/ml) or 5-Fluorouracil (16 µM)) on the cell cycle profile of DLD-1 cells. Briefly, DLD-1 cells were plated at 5^∗104/ml and treated for 48 h and 72 h. Collected cells were fixed with ice-cold ethanol (70%) and stored at -20°C for at least 2 h. Fixed cells, which were washed with PBS and incubated at 37°C for 1 h with 50 µl RNase (1 mg/ml) (Sigma Aldrich, Germany), were stained for 15 minutes with PI (Molecular Probes, Eugene, Oregon, USA). Cell cycle was monitored using BD FACSDiva™ and the percentage of cells in the different phases of the cell cycle (pre-Gi, G0/G1, S, and G2/M) phases was determined using BD FACSDiva™ Software.

[2] = Body weight and survival in the xenograft model; assay type: in vivo, NOD/SCID mice
Procedure: Twelve NOD/SCID mice were randomly distributed into two groups (6 mice/group). HCT-116 colon cancer cells (3.5 million) suspended in sterile physiological solution (0.9% NaCl) were injected subcutaneously into the flank of 4 to 6-week old mice. Animals were kept in a light- and temperature-controlled environment and provided with food and water ad libitum. The tumor size was monitored and determined three times per week using a sterile Vernier caliper. Tumor volume was calculated by the following formula: Volume=π/6^∗(length × width × height). Once the tumor size reached seven mm^3, mice were treated three times per week for 21 days with intraperitoneal injections of vehicle (control group) or ceftazidime (10 mg/mouse). Growth delay was assessed by comparing the size of tumors in treated animals to those of control animals. Ethical approval was obtained before the beginning of the experiments.

[3] = test system: HCT-116 cells; assay: Cell cycle distribution, propidium iodide staining; assay type: cell-based, human; details: CFT 100 µg/mL, CFP 50 µg/mL, 5-FU 8 µM, alone or combined, mean ± SE
Procedure: Propidium iodide (PI) staining was used to evaluate the effect of the different treatments on the cell cycle. […] Fixed cells, which were washed with PBS and incubated at 37 °C for 1 h with 50 µl RNase (1 mg/ml) (Sigma Aldrich, Germany), were stained for 15 minutes with PI (Molecular Probes, Eugene, Oregon, USA).

[4] = 48 h, CFT 100 µg/mL, CFP 50 µg/mL, 5-FU 16 µM, alone or combined, mean ± SE
[5] = 72 h, CFT 100 µg/mL, CFP 50 µg/mL, 5-FU 16 µM, alone or combined, mean ± SE

CC(C)(O/N=C(\C(=O)N[C@@H]1C(=O)N2C(C(=O)[O-])=C(C[n+]3ccccc3)CS[C@H]12)c1csc(N)n1)C(=O)O [CFT, (6R,7R)-7-[[(2Z)-2-(2-amino-1,3-thiazol-4-yl)-2-(2-carboxypropan-2-yloxyimino)acetyl]amino]-8-oxo-3-(pyridin-1-ium-1-ylmethyl)-5-thia-1-azabicyclo[4.2.0]oct-2-ene-2-carboxylate]
percentage of cells in G0/G1 [1, 4]: 52.6 ± 3.3%
percentage of cells in Pre G1 [1, 4]: 9.3 ± 2.5^(a) %
percentage of cells in S [1, 4]: 14.6 ± 3.2%
accumulation of dead cells in the pre-G1 phase vs. control ([1]; 48 h): 1.9 fold
percentage of cells in G0/G1 [1, 5]: 38.2 ± 4.3^(a) %
percentage of cells in G2/M [1, 5]: 12.0 ± 1.6^(a) %
percentage of cells in Pre G1 [1, 5]: 40.6 ± 5.2^(a) %
percentage of cells in S [1, 5]: 8.4 ± 0.6%
accumulation of dead cells in the pre-G1 phase vs. control ([1]; 72h): 9.4 fold
weight lost ([2]; after three weeks of treatment): 6.8%
body weight ([2]; after three weeks of treatment, 10 mg/mouse): 19.8 g
average weight of the mice ([2]; day of the first treatment): 21.3 g
mortality (in words) ([2]; three weeks of treatment): none of the animals died
protective effect on body weight ([2]; vs. control animals, three weeks): 58%
percentage of cells in G2/M ([3]; 48 h): 24.4 ± 1.2%
percentage of cells in Pre G1 ([3]; 48 h): 6.4 ± 2.3^(a) %
percentage of cells in S ([3]; 48 h): 12.8 ± 2.9%
percentage of cells in G0/G1 ([3]; 72 h): 56.9 ± 1.3^(a) %
percentage of cells in G2/M ([3]; 72 h): 24.3 ± 0.5^(a) %
percentage of cells in Pre G1 ([3]; 72 h): 9.8% and 9.8 ± 0.9^(a) %
percentage of cells in S ([3]; 72 h): 6.6 ± 1.0%
